Data: ChEMBL document CHEMBL4811291, “Discovery of macrocyclic HDACs 1, 2, and 3 selective inhibitors for HIV latency reactivation” (Bioorg Med Chem Lett, 2021)

What was measured:
Histone deacetylase 1 = Histone deacetylase 1 (Homo sapiens, UniProt Q13547); assay: Inhibition of HDAC1 (unknown origin)
Histone deacetylase 8 = target: T1, Histone deacetylase 8 (Homo sapiens, UniProt Q9BY41); assay: Inhibition of HDAC8 (unknown origin)
T1 sequence (Q9BY41 whole entry): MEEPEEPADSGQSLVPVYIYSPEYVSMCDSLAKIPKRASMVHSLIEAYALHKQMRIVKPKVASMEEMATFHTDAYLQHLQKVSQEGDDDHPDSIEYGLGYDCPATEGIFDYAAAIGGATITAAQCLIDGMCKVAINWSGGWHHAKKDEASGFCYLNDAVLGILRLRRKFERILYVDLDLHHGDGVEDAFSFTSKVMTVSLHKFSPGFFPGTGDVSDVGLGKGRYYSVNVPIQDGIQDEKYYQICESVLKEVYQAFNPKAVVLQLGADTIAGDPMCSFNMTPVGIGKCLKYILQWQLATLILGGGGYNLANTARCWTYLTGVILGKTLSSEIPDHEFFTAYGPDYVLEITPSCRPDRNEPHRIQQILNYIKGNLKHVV

Histone deacetylase 2 = Histone deacetylase 2 (Homo sapiens, UniProt Q92769); assay: Inhibition of HDAC2 (unknown origin)
Chain of Histone deacetylase 2 (Q92769 whole entry): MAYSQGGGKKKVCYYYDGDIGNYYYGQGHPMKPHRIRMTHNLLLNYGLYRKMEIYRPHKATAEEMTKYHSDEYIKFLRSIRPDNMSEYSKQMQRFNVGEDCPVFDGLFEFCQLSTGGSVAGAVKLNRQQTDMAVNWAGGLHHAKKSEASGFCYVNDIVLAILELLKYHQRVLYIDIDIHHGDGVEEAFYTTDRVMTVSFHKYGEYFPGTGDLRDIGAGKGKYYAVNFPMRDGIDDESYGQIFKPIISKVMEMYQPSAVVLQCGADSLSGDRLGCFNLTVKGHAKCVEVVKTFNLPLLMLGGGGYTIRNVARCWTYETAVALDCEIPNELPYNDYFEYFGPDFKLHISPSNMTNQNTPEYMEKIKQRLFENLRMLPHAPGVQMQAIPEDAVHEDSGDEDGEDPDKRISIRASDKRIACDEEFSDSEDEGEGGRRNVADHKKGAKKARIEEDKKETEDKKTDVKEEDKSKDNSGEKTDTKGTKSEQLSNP

[1] = target: T2, Protein deacetylase HDAC6 (Homo sapiens, UniProt Q9UBN7); assay: Inhibition of HDAC6 (unknown origin)
T2 sequence (Q9UBN7 whole entry): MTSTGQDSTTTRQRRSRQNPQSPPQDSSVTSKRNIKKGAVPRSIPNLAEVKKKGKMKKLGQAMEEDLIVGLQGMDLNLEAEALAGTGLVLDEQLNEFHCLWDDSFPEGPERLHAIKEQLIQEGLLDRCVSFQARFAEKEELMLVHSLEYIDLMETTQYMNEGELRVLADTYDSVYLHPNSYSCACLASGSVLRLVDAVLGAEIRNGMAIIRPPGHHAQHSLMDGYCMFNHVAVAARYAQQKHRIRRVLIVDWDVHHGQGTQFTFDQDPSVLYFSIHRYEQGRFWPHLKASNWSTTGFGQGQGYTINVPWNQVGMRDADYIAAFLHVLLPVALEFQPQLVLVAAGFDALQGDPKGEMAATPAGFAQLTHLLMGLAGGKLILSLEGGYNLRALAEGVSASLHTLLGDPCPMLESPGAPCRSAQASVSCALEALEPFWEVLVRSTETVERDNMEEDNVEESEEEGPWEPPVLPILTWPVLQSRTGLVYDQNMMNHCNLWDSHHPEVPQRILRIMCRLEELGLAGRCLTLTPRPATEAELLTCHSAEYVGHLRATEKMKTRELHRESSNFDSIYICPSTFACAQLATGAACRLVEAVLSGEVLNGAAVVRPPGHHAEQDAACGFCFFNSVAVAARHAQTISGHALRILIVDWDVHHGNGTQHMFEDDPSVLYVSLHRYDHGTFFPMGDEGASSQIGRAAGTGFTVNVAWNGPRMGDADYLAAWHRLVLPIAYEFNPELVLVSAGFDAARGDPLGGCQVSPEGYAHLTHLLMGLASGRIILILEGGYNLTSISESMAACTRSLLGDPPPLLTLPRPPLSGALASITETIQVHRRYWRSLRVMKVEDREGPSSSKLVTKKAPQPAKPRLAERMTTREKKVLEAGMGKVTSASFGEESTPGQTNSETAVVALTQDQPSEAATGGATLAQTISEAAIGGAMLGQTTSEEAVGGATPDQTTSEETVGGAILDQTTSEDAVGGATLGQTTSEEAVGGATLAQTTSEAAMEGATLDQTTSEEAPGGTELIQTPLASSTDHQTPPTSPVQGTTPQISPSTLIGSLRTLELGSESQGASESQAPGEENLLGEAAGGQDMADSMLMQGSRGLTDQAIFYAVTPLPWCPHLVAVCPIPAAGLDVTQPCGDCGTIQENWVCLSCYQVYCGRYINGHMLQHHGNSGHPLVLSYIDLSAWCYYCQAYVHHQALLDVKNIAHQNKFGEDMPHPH

[2] = test system: Human immunodeficiency virus; assay: Reactivation of HIV latency infected in human 2C4 cells in presence of 5 % NHS by luciferase reporter gene assay; format: functional, organism-based
Histone deacetylase 3 = Histone deacetylase 3 (Homo sapiens, UniProt O15379); assay: Inhibition of HDAC3 (unknown origin)
Chain of Histone deacetylase 3 (O15379 whole entry): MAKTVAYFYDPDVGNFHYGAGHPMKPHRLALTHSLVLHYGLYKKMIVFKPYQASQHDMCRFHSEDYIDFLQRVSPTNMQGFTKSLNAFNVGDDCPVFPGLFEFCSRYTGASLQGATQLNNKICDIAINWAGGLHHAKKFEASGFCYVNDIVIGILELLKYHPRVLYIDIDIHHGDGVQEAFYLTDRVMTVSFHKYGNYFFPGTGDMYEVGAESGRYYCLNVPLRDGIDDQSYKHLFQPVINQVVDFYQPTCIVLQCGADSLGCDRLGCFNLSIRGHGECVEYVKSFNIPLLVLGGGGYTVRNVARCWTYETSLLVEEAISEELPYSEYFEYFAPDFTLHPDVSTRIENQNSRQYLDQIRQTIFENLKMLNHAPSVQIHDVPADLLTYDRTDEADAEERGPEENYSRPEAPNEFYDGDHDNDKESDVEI

[3] = test system: Human immunodeficiency virus; assay: Reactivation of HIV latency infected in human 2C4 cells in presence of 0.1 % NHS by luciferase reporter gene assay; format: functional, organism-based
[4] = Cmax in Wistar Han rat at 10 mg/kg, po; format: ADME, organism-based; parameters: route oral, dose 10 mg/kg; settings: in vivo
[5] = Tmax in Wistar Han rat at 10 mg/kg, po; format: ADME, organism-based; settings: in vivo
[6] = Oral bioavailability in Wistar Han rat at 10 mg/kg; format: ADME, organism-based; settings: in vivo
[7] = Ratio of EC50 for reactivation of HIV latency infected in human 2C4 cells in presence of 5 % NHS by luciferase reporter gene assay to EC50 for reactivation of HIV latency infected in human 2C4 cells in presence of 0.1 % NHS by luciferase reporter gene assay; format: functional, Human immunodeficiency virus
[8] = Half life in Wistar Han rat at 2 mg/kg, iv; format: ADME, organism-based; settings: in vivo
[9] = AUC in Wistar Han rat at 10 mg/kg, po; format: ADME, organism-based; parameters: dose 10 mg/kg; settings: in vivo
[10] = Clearance in Wistar Han rat at 2 mg/kg, iv; format: ADME, organism-based; settings: in vivo
Homo sapiens = species on record: Homo sapiens; assay: Selectivity ratio of IC50 for HDAC8 (unknown origin) to IC50 for HDAC6 (unknown origin)
[11] = Clearance in Wistar Han rat at 0.05 mg/kg, iv; format: ADME, organism-based; settings: in vivo
[12] = Half life in Wistar Han rat at 0.05 mg/kg, iv; format: ADME, organism-based; settings: in vivo
[13] = Plasma concentration in Wistar Han rat at 10 mg/kg, po after 24 hrs; format: ADME, organism-based
[14] = Human immunodeficiency virus 1, 2C4

Chain of Histone deacetylase 1 (Q13547 whole entry): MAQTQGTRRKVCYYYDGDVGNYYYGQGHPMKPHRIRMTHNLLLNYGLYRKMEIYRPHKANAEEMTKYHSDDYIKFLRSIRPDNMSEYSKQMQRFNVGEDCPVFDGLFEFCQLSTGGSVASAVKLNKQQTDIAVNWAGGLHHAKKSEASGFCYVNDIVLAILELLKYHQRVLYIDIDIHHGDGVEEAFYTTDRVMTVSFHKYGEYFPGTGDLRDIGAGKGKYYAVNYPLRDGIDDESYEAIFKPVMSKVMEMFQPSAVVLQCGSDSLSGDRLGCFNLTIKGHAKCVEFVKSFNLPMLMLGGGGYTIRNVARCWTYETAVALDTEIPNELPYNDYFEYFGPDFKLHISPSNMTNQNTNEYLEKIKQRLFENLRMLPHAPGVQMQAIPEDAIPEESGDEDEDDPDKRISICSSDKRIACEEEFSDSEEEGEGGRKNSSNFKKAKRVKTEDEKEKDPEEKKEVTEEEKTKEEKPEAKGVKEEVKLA

Structure (SMILES) | IC50 (Histone deacetylase 1) | IC50 (Histone deacetylase 8) | IC50 (Histone deacetylase 2) | IC50 [1] | EC50 [2, 14] | IC50 (Histone deacetylase 3) | EC50 [3, 14] | other results
CCC(=O)CCCCC[C@@H]1NC(=O)C2CCN2CCCCCCOc2ccccc2-c2cnc1[nH]2 (stereo in doubt; 6) | 218 nM | 8420 nM | 668 nM | 5550 nM | 3020 nM | 105 nM | 1570 nM | 
CCC(=O)CCCCC[C@H](NC(=O)[C@H]1CC12CCN(C)CC2)c1ncc(-c2ccc3c(=O)n(C)ccc3c2)[nH]1 |  |  |  |  | 130 nM |  |  | 
CCC(=O)CCCCC[C@@H]1NC(=O)[C@H]2CCCCN2C(=O)[C@H]([C@@H](C)CC)NC(=O)[C@H](Cc2cn(OC)c3ccccc23)NC1=O |  |  |  |  |  |  |  | EC50 ([2]; 2c4): 587 nM; EC50 ([3]; 2c4): 125 nM
CCC(=O)CCCCC[C@@H]1NC(=O)[C@H]2CC23CCN(CCCCN2C4CCC2c2cc(ccc24)-c2cnc1[nH]2)CC3 (stereo not given in full) |  | > 900 nM | 49 nM | > 900 nM | 867 nM |  | 844 nM | 
CCC(=O)CCCCC[C@H](NC(=O)[C@H]1CC12CCN(C)CC2)c1ncc(-c2ccc3c(c2)C2CCC3C2)[nH]1 (stereo not given in full) |  |  | 3.7 nM |  | 376 nM |  | 351 nM | 
CCC(=O)CCCCC[C@@H]1NC(=O)[C@H]2CC23CCN(CCCOCCCn2ccc4cc(ccc4c2=O)-c2cnc1[nH]2)CC3 |  |  |  | > 900 nM | 1980 nM |  | 1790 nM | 
CCC(=O)CCCCC[C@H](NC(=O)[C@H]1CC12CCN(CC)CC2)c1ncc(-c2ccc3c(=O)n(CC)ccc3c2)[nH]1 | < 1.5 nM |  | < 1.5 nM |  | 56 nM | < 1.5 nM | 52 nM | 
CCC(=O)CCCCC[C@@H]1NC(=O)[C@H]2CC23CCN(CCCCCCCCn2ccc4cc(c(OC)cc4c2=O)-c2cnc1[nH]2)CC3 |  | > 900 nM |  |  | 12 nM |  | 11 nM | Cmax [4]: 13 nM; Tmax [5]: 3 h; bioavailability [6]: 2.9%; Ratio EC50 [7]: 1.1; half-life [8]: 1.4 h; AUC [9]: 0.04 µM·h; clearance [10]: 96 mL/min/kg; Ratio IC50 (Homo sapiens): > 1000
CCC(=O)CCCCC[C@@H]1NC(=O)C2CCN2CCCCCOc2ccccc2-c2cnc1[nH]2 (stereo in doubt; 3) | 2560 nM |  | 8620 nM |  |  | 791 nM |  | 
CCC(=O)CCCCC[C@@H]1NC(=O)C2CCN2CCCCCOc2ccccc2-c2cnc1[nH]2 (stereo in doubt; 4) | 216 nM | 21500 nM | 911 nM | 5390 nM | 5090 nM | 91 nM | 3170 nM | 
CCC(=O)CCCCC[C@@H]1NC(=O)[C@H]2CC23CCN(CCCCCOc2ccc4cc(ccc4n2)-c2cnc1o2)CC3 |  | > 900 nM |  | > 900 nM | > 40000 nM |  | > 40000 nM | 
CCC(=O)CCCCC[C@@H]1NC(=O)[C@H]2CC23CCN(CCCCCCCCn2ccc4cc(ccc4c2=O)-c2cnc1[nH]2)CC3 |  | > 900 nM |  | > 900 nM | 16 nM | 0.06 nM | 14 nM | clearance [11]: 312 mL/min/kg; half-life [12]: 2.8 h; Ratio EC50 [7]: 1.1; Ratio IC50 (Homo sapiens): > 1000
CCC(=O)CCCCC[C@@H]1NC(=O)[C@H]2CC23CCN(CCOCCn2ccc4cc(ccc4c2=O)-c2cnc1[nH]2)CC3 |  | > 900 nM |  | > 900 nM | > 40000 nM |  | > 40000 nM | concentration at 24 h [13]: 1 nM; Cmax [4]: 62 nM; Tmax [5]: 0.25 h; bioavailability [6]: 0.15%; half-life [8]: 3.9 h; AUC [9]: 0.11 µM·h; clearance [10]: 3.9 mL/min/kg
CCC(=O)CCCCC[C@@H]1NC(=O)[C@H]2CC23CCN(CCCCN2C4CCC2c2c(cccc24)-c2cnc1[nH]2)CC3 (stereo not given in full) |  | > 900 nM | 24 nM | > 900 nM | 9060 nM |  | 6270 nM | 
CCC(=O)CCCCC[C@H](NC(=O)[C@H]1CC12CCN(CC)CC2)c1[nH]c(-c2ccc(F)cc2)nc1C(N)=O |  |  |  |  | 165 nM |  | 193 nM | 
CCC(=O)CCCCC[C@H](NC(=O)C1CN(C)C1)c1ncc(-c2ccccc2)[nH]1 | 37 nM | 15000 nM | 249 nM | 5750 nM | 2360 nM | 12 nM | 2470 nM | 
CCC(=O)CCCCC[C@H](NC(=O)[C@H]1CC12CCN(CC)CC2)c1[nH]c2nc1C(=O)NCCCCCc1cccc-2c1 |  | > 900 nM | > 900 nM | > 900 nM | 12000 nM |  | > 40000 nM | 
CCC(=O)CCCCC[C@@H]1NC(=O)[C@H]2CC23CCN(CCCCCn2c(=O)ccc4cc(ccc42)-c2cnc1o2)CC3 | 16 nM | > 900 nM | 260 nM | 858 nM | 4730 nM | 56 nM | 5150 nM | 
CCC(=O)CCCCC[C@@H]1NC(=O)[C@H]2CC23CCN(CCCOCCn2ccc4cc(ccc4c2=O)-c2cnc1[nH]2)CC3 |  | > 900 nM |  | > 900 nM | > 40000 nM |  | > 40000 nM | 
CCC(=O)CCCCC[C@@H]1NC(=O)C2CCN2CCCCCCOc2ccccc2-c2cnc1[nH]2 (stereo in doubt; 5) | 682 nM |  | 2830 nM |  |  | 242 nM |  | 
CCC(=O)CCCCC[C@@H]1NC(=O)C2CCN2CCCCCCc2ccccc2-c2cnc1[nH]2 (stereo in doubt; 7) | 2940 nM |  | 5950 nM | 9830 nM |  | 1220 nM |  | 
CCC(=O)CCCCC[C@H](NC(=O)C1CN(C)C1)c1ncc(-c2cc3ccccc3nc2OC)[nH]1 |  |  |  | 680 nM |  |  |  | 
CCC(=O)CCCCC[C@@H]1NC(=O)C2CCN2CCCCCCc2ccccc2-c2cnc1[nH]2 (stereo in doubt; 8) | 355 nM |  | 1140 nM | 17500 nM |  | 188 nM |  | 
CCC(=O)CCCCC[C@H](NC(=O)[C@H]1CC12CCN(CC)CC2)c1[nH]c2nc1C(=O)NCCC/C=C\c1cccc-2c1 |  | 90 nM |  | > 900 nM | 2880 nM |  | 1460 nM | 
CCC(=O)CCCCC[C@H](NC(=O)[C@H]1CC12CCN(CC)CC2)c1[nH]c2nc1C(=O)NCCC/C=C/c1cccc-2c1 |  |  |  |  | 19300 nM |  | 5240 nM | 
CCC(=O)CCCCC[C@@H]1NC(=O)[C@H]2CC23CCN(C/C=C/CN2C4CCC2c2cc(ccc24)-c2cnc1[nH]2)CC3 (stereo not given in full) |  | > 900 nM | 0.86 nM | > 900 nM | 76 nM |  | 73 nM | 
CCC(=O)CCCCC[C@H](NC(=O)C1CN(C)C1)c1[nH]c(-c2ccccc2)nc1C(N)=O |  |  |  |  | 269 nM |  | 294 nM | 
CCC(=O)CCCCC[C@@H]1NC(=O)CN(C)CCCCOCCCCn2ccc3cc(ccc3c2=O)-c2cnc1[nH]2 |  | > 900 nM |  | > 900 nM | 3510 nM |  | 2500 nM | 
